Values quoted from earlier work as cited in patent publication US11554108B2, “Methods and compositions for treating cutaneous fungal infections” (Xeropedix, Inc., priority 2016, dated 2023).
Values after ≈ are worked out from the molar mass of the structure shown. Like-named read-outs stand apart in the source and are kept apart here.

Assays:
[1] = not given; remark: listed apart in the source
[2] = biological target: transient receptor potential vanilloid 1 (TRPV1) cation channel (Homo sapiens, UniProt Q8NER1); conditions: lowered from approximately 42° C.
transient receptor potential vanilloid 1 (TRPV1) cation channel, sequence (Q8NER1 whole entry): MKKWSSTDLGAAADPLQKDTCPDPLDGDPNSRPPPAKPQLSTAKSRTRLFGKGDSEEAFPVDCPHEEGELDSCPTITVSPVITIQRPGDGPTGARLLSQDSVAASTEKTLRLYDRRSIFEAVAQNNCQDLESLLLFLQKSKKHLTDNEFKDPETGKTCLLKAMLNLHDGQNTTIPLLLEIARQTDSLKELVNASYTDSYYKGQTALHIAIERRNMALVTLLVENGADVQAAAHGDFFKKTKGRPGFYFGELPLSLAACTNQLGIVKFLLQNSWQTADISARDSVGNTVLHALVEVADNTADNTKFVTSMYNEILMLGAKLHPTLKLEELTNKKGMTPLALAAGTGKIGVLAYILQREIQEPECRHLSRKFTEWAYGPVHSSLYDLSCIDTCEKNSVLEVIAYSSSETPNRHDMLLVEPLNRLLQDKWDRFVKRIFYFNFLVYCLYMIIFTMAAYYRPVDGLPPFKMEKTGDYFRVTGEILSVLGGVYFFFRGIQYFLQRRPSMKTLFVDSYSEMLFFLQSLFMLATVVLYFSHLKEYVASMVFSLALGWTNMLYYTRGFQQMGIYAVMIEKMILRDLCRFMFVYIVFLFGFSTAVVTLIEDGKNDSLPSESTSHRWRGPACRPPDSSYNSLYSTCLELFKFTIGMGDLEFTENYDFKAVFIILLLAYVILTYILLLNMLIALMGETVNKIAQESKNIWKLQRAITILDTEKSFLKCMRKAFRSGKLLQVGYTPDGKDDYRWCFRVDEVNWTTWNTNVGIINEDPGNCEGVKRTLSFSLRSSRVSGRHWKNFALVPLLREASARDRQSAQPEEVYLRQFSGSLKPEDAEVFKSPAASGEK

CN(C/C=C/C#CC(C)(C)C)Cc1cccc2ccccc12 [terbinafine]
stratum corneum concentration (24 hours after a single application of 1% terbinafine cream): 37 ng/cm^2
concentration of terbinafine in the stratum corneum (24 hours after application of 1% terbinafine cream, converted with 1 ng/cm^2=4 μg/ml): approximately 148 μg/ml
minimum fungicidal concentration against T. rubrum (T. rubrum): 3 ng/mL (≈ 0.0103 µM)
rate of absorption, maximum concentration, and half-life in the skin ([1]; ethanol gel compared to a standard cream formulation): improve
percutaneous terbinafine absorption ([1]; in vivo, ethanol solution compared to isopropyl myristate solution): enhanced

[Cl][Al]([Cl])[Cl] [aluminum chloride]
inhibition of T. mentagrophytes in an in vitro MIC test (T. mentagrophytes; 10% aluminum chloride, equal to 100,000 μg/ml): no inhibition
inhibition of T. mentagrophytes in an in vitro MIC test (T. mentagrophytes; 20% aluminum chloride, equal to 200,000 μg/ml): inhibited the fungus
reduction of unpleasant symptoms of tinea pedis (tinea pedis; 30% aluminum chloride solution): effective at reducing unpleasant symptoms
resolution of the infection (tinea pedis; 30% aluminum chloride solution): did not resolve the infection entirely

CCO [Ethanol]
threshold temperature at which TRPV1 signals excessive heat [2]: 34 °C

aluminum chlorohydrate
effectiveness against tinea pedis relative to aluminum chloride (tinea pedis; in vivo): less effective than aluminum chloride
